Measurements: patent US20020164721A1, “Design of a polyepitopic construct for the induction of HLA-A2.1 restricted HIV 1 specific CTL responses using HHD mice” (priority 1999, published 2002)
Where “and” joins values, the source holds several entries; their conditions need not be identical. Identical values can stand only once. Entries after “also recorded” stand apart in the source; their conditions may differ. Like-named read-outs stand apart in the source and are kept apart here.

Legend:
[1] = system: peptide-pulsed HHD-transfected RMAS cells; assay type: in vivo, HHD mice; conditions: for Maximum specific lysis (%): each responder mouse
[2] = system: peptide-pulsed HHD-transfected RMAS cells; assay type: in vivo, HHD mice
[3] = system: HHD-transfected RMA-S cells loaded with relevant peptide; assay: CTL response of HHD mice injected s.c. with tumor epitopic peptide in IFA (51Cr-release assay); assay type: in vivo; conditions: for hierarchy of CTL inducers: peptide alone in IFA, by number of responding mice and level of specific lysis; for R/T (responder versus tested mice) / lysis in % (maximal lysis for each responder mouse): peptide s.c. in IFA; for R/T (responder versus tested mice): no helper, responder = at least 10% specific lysis; for lysis in % (maximal lysis for each responder mouse): usually 60:1 E/T ratio
[4] = system: peptide-loaded HHD-transfected RMA-S cells and HHD-transfected HeLa cells expressing the polyepitope; assay: Melanoma polyepitopic pCMV-B10 DNA immunization of HHD mice, CTL assay; assay type: in vivo; conditions: pCMV-B10 DNA with 10 melanoma epitopes, FIG. 1C and D
[5] = system: HHD-transfected RMA-S target cells loaded with relevant peptide; assay: CTL response of HHD mice co-immunized in IFA with tumor peptide and HBVc.128 helper peptide; assay type: in vivo; conditions: for R/T (responder versus tested mice): 50 μg CD8 peptide + 140 μg HBVc.128 helper in IFA; for CTL response with helper peptide (in words): co-injected with HBVc.128 helper, compared with peptide alone
[6] = system: HHD-transfected RMA-S cells loaded with relevant peptide; assay: CTL response of A2A2Kb mice injected s.c. with tumor epitopic peptide in IFA (51Cr-release assay); assay type: in vivo; conditions: for R/T (responder versus tested mice): responder = at least 10% specific lysis
[7] = target: T1, HLA-A2.1 molecules (Homo sapiens, UniProt P04439, D140Y/D185E/D98H/E176V/E277Q/G131W/G231S/I119V/I121R/I166T/I218V/L300P/L318F/N151K/N90K/P208A/P217A/Q86G/Q94H/R138H/R169H/T345S); assay type: binding
T1 construct: Using TAP-deficient, HLA-A2.1^+ T2 cells, we evaluated these parameters in an immunofluorescence assay; endogenous in cells; host or cells: T2 cells (TAP-deficient, HLA-A2.1+)

[8] = system: HHD-transfected RMAS cells loaded with relevant peptide; assay: CTL response of HHD mice immunized with recombinant Ty-VLP; assay type: in vivo; conditions: for lysis in % (highest specific lysis): recombinant Ty-VLP carrying the epitope, individual mice 1-6
[9] = system: HHD-transfected RMAS cells loaded with relevant peptide; assay: CTL response of HHD mice immunized with peptide-loaded dendritic cells; assay type: in vivo; conditions: for lysis in % (highest specific lysis): individual mice 1-6, usually 60/1 E/T; for lysis in % after a second in vitro restimulation: second restimulation with 10% TCGF, individual mice 1-6
[10] = system: HHD-transfected RMAS cells loaded with relevant peptide; assay: CTL response of HHD mice immunized with lipopeptides; assay type: in vivo; conditions: lipopeptide of the epitope; individual mice 1-6
[11] = system: HHD-transfected RMAS cells loaded with relevant peptide; assay: CTL response of HHD mice immunized with monoepitopic pCMV-B10 DNA; assay type: in vivo; conditions: for lysis in % (highest specific lysis): pCMV-B10 DNA encoding the epitope, individual mice 1-6
[12] = by number of responder mice and strength of responses, peptide in IFA
[13] = without helper peptide, 100 μg peptide s.c. in IFA
[14] = with helper peptide, 50 μg CD8 + 140 μg HBV core T13L in IFA
[15] = wild-type HIV 1 peptides, reference I9V, T2 cells

| Sequence | classification as immunogen [1, 12] | Responder/tested mice [1, 13] | hierarchy of CTL inducers [3] | R/T (responder versus tested mice) [3] | CTL response against the epitope after melanoma polyepitope DNA immunization (in words) [4] | R/T (responder versus tested mice) [5] | R/T (responder versus tested mice) [6] | RA (relative affinity) [7] | further results |
| --- | --- | --- | --- | --- | --- | --- | --- | --- | --- |
| AFHHVAREL [A9L, HIV 1 NEF (188-196) CD8 epitopic peptide] | inefficient | 0/6 | – | – | – | – | – | – | Responder/tested mice [2, 14]: 0/6 |
| ESELVNQIIEQ [E11Q] | – | – | – | – | – | – | – | – | classification as immunogen ([1]; mouse, in vivo): inefficient; Responder/tested mice ([1]; mouse, in vivo, sc): 0/6; Responder/tested mice ([2]; mouse, in vivo): 0/6 |
| FLWGPRALV [MAGE-3.271] | – | – | weak | 1/6 | No specific lysis | 6/6 | 0/6 | – | lysis in % (maximal lysis for each responder mouse) [3]: (33) %; CTL response with helper peptide (in words) [5]: good CTL responses in a large proportion of mice |
| IISAVVGIL [Her2/neu.654, Her2/neu 654-662 epitopic peptide] | – | – | weak | 1/6 | – | 0/6 | 0/6 | – | lysis in % (maximal lysis for each responder mouse) [3]: (42) % |
| ILKEPVHGV [I9V] | strong | 4/6 | – | – | – | – | – | – | Responder/tested mice [2, 14]: 5/6 |
| ILTVILGVL [Melan-A/MART-1.32, Melan-A/MART-1 32-40 epitopic peptide] | – | – | inefficient | 0/6 | did not elicit CTL responses; also recorded: No specific lysis | 1/6 | 0/6 | 21.1 | lysis in % ([5]; co-injected with HBVc.128 helper peptide in IFA, each responder mouse): (10) % |
| ITDQVPFSV [gp100.209] | – | – | weak | 1/6 | elicited CTL responses depending on mice; also recorded: No specific lysis | 3/6 | 0/6 | – | lysis in % (maximal lysis for each responder mouse) [3]: (23) % |
| KTWGQYWQV [gp100.154] | – | – | strong | 4/6 | Strong responses | 9/11 | 5/6 | – | CTL response with helper peptide (in words) [5]: stronger responses in a larger proportion of mice |
| LLDGTATLRL [gp100.457] | – | – | inefficient | 0/6 | Significant responses | 5/6 | 0/6 | 1.65 | CTL response with helper peptide (in words) [5]: good CTL responses in a large proportion of mice |
| LLGRNSFEV [p53.264] | – | – | inefficient | 0/7 | – | 2/3 | 0/6 | – | – |
| LLWKGEGAV [L9V, HIV 1 POL (956-964) CD8 epitopic peptide] | intermediate | 3/6 | – | – | – | – | – | – | – |
| MLLAVLYCL [Tyrosinase.1, Tyrosinase 1-9 epitopic peptide] | – | – | inefficient | 0/10 | did not elicit CTL responses; also recorded: No specific lysis | 5/6 | 0/6 | >60 | CTL response with helper peptide (in words) [5]: good CTL responses in a large proportion of mice |
| PLTFGWCFKL [P10L, HIV 1 NEF (134-143) CD8 epitopic peptide] | inefficient | 0/6 | – | – | – | – | – | – | RA (relative affinity) [7, 15]: >100/ND; Responder/tested mice [2, 14]: 0/6 |
| PLVKLWYQL [P9L, HIV 1 POL (576-584) CD8 epitopic peptide] | inefficient | 0/6 | – | – | – | – | – | – | RA (relative affinity) [7, 15]: >100/ND; Responder/tested mice [2, 14]: 0/6 |
| RLRDLLLIV [R9V, HIV 1 ENV gp41 (260-268) CD8 epitopic peptide] | intermediate | 1/6 | – | – | – | – | – | >100/ND | Maximum specific lysis (%) ([1]; without helper peptide): 14%; Responder/tested mice [2, 14]: 0/6 |
| RMPEAAPPV [p53.65, p53 65-73 epitopic peptide] | – | – | intermediate | 4/6 | – | 5/6 | 0/6 | 0.91 | CTL response with helper peptide (in words) [5]: stronger responses in a larger proportion of mice |
| STPPPGTRV [p53.149, p53 149-157 epitopic peptide] | – | – | inefficient | 0/6 | – | 3/6 | 0/6 | – | – |
| TLGIVCPI [HPV E7.86, HPV16 E7 86-93 epitopic peptide] | – | – | inefficient | 0/6 | – | 2/6 | 2/6 | – | – |
| TLNAWVKVV [T9V] | intermediate | 2/6 | – | – | – | – | – | – | Responder/tested mice [2, 14]: 3/5 |
| VIYQYMDDL [V9L, HIV 1 POL (334-342) CD8 epitopic peptide] | intermediate | 1/6 | – | – | – | – | – | – | Maximum specific lysis (%) ([1]; without helper peptide): 34%; Responder/tested mice [2, 14]: 1/6; Maximal specific lysis (%) ([2]; with helper peptide, each responder mouse): 57% |
| VLYRYGSFSV [gp100.476, gp100 476-485 human melanoma epitopic peptide] | – | – | weak | 2/6 | did not elicit CTL responses | 6/7 | 1/6 | 10 | lysis in % (maximal lysis for each responder mouse) ([6]; usually 60:1 E/T ratio): (29) % |
| YLSGANLNL [CEA.571, CEA 571-579 epitopic peptide] | – | – | strong | 6/6 | – | 3/6 | 0/6 | – | lysis in % (highest specific lysis) [8]: 56% and 59% and 51% and 58% and 46% and 62%; CTL responses (in words) ([8]; recombinant Ty-VLP, all animals tested): strong CTL responses; lysis in % (highest specific lysis) [9]: 4% (2×) and 1% (2×) and 0% and 2%; lysis in % after a second in vitro restimulation [9]: (1) %; also recorded: (5) %; also recorded: (2) %; also recorded: (0) %; also recorded: (22) %; lysis in % (highest specific lysis) [10]: 0% (2×) and 8% (2×) and 34% and 3%; CTL response with helper peptide (in words) [5]: less immunogenic; lysis in % (highest specific lysis) [11]: 19% and 66% and 40% and 65% and 62% and 55%; CTL responses (in words) ([11]; recombinant pCMV-B10-DNA, all animals tested): strong CTL responses |
| YMDGTMSQV [Tyrosinase.368-D] | – | – | weak | 1/6 | elicited CTL responses depending on mice | 2/6 | 0/6 | 2.27 | lysis in % (highest specific lysis) [9]: 12% and 20% and 8% and 3% and 7% and 23%; lysis in % after a second in vitro restimulation [9]: (64) %; also recorded: (92) %; also recorded: (71) %; also recorded: (68) %; also recorded: (56) %; lysis in % (maximal lysis for each responder mouse) [3]: (10) %; lysis in % (highest specific lysis) [10]: 0% (3×) and 10% and 1% and 4%; lysis in % (highest specific lysis) [11]: 57% and 55% and 28% (2×) and 58% and 56% |
| YMNGTMSOV [Tyrosinase.368-N] | – | – | intermediate | 4/15 | – | 5/12 | 0/6 | 2.2 | lysis in % (highest specific lysis) [8]: 0% and 61% and 58% and 39% and 29% and 17%; lysis in % (highest specific lysis) [9]: 0% (4×) and 8% and 15%; lysis in % after a second in vitro restimulation [9]: (3) %; also recorded: (17) %; also recorded: (30) %; also recorded: (80) %; also recorded: (61) %; also recorded: (1) %; lysis in % (highest specific lysis) [10]: 51% and 20% and 0% and 5% and 11% and 12%; lysis in % (highest specific lysis) [11]: 6% and 12% and 16% and 13% and 11% and 38% |
